Assays:
Type in all cases: in vivo
[1] = system: ryegrass, Italian (Italian ryegrass, Lolium multiflorum); assay: Test A preemergence; settings: Lolium multiflorum, pre-emergence, 240 h, 0 to 100 scale where 0 is no effect and 100 is complete control, read-out: Ryegrass, Italian plant response rating
In short: (§1)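 Visual injury, scored on a 0–100 scale relative to untreated controls, was recorded about 10 d after application. Treatments were a preemergence soil spray over planted seeds or a postemergence spray on plants at the one- to two-leaf stage, 2 to 10 cm tall, all in loam soil–sand blend in the greenhouse.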

[2] = system: giant foxtail (Setaria faberii); assay: Test A preemergence; settings: Setaria faberi, pre-emergence, 240 h, 0 to 100 scale where 0 is no effect and 100 is complete control, read-out: Foxtail, Giant plant response rating
In short: as §1

[3] = system: pigweed (Amaranthus retroflexus); assay: Test A preemergence; settings: Amaranthus retroflexus, pre-emergence, 240 h, 0 to 100 scale where 0 is no effect and 100 is complete control, read-out: Pigweed plant response rating
Kochia (Kochia scoparia) [4] = assay: Test A preemergence; settings: Bassia scoparia, pre-emergence, 240 h, 0 to 100 scale where 0 is no effect and 100 is complete control, read-out: Kochia plant response rating
In short: as §1

[5] = system: barnyardgrass (Echinochloa crus-galli); assay: Test A preemergence; settings: Echinochloa crus-galli, pre-emergence, 240 h, 0 to 100 scale where 0 is no effect and 100 is complete control, read-out: Barnyardgrass plant response rating
In short: as §1

[6] = system: ragweed (common ragweed, Ambrosia elatior); assay: Test A preemergence; settings: Ambrosia artemisiifolia, pre-emergence, 240 h, 0 to 100 scale where 0 is no effect and 100 is complete control, read-out: Ragweed plant response rating
In short: as §1

[7] = system: wheat (Triticum aestivum); assay: Test A postemergence; settings: Triticum aestivum, post-emergence, 240 h, Postemergence, 31 g ai/ha; 0 is no effect, 100 is complete control; read-out: Wheat plant response rating (0 to 100 scale)
In short: as §1

[8] = system: ryegrass, Italian (Italian ryegrass, Lolium multiflorum); assay: Test A postemergence; settings: Lolium multiflorum, post-emergence, 240 h, read-out: Ryegrass, Italian plant response rating (0 to 100 scale)
In short: as §1

[9] = system: blackgrass (Alopecurus myosuroides); assay: Test A postemergence; settings: Alopecurus myosuroides, post-emergence, 240 h, read-out: Blackgrass plant response rating (0 to 100 scale)
In short: as §1

[10] = system: giant foxtail (Setaria faberii); assay: Test A postemergence; settings: Setaria faberi, post-emergence, 240 h, read-out: Foxtail, Giant plant response rating (0 to 100 scale)
In short: as §1

[11] = system: Galium (catchweed bedstraw, Galium aparine); assay: Test A postemergence; settings: Galium, post-emergence, 240 h, read-out: Galium plant response rating (0 to 100 scale)
In short: as §1

[12] = system: pigweed (Amaranthus retroflexus); assay: Test A postemergence; settings: Amaranthus retroflexus, post-emergence, 240 h, read-out: Pigweed plant response rating (0 to 100 scale)
In short: as §1

Kochia (Kochia scoparia) [13] = assay: Test A postemergence; settings: Bassia scoparia, post-emergence, 240 h, read-out: Kochia plant response rating (0 to 100 scale)
In short: as §1

corn (Zea mays) = assay: Test A postemergence; settings: Zea mays, post-emergence, 240 h, read-out: Corn plant response rating (0 to 100 scale)
In short: as §1

[14] = system: barnyardgrass (Echinochloa crus-galli); assay: Test A postemergence; settings: Echinochloa crus-galli, post-emergence, 240 h, read-out: Barnyardgrass plant response rating (0 to 100 scale)
In short: as §1

[15] = system: ragweed (common ragweed, Ambrosia elatior); assay: Test A postemergence; settings: Ambrosia artemisiifolia, post-emergence, 240 h, read-out: Ragweed plant response rating (0 to 100 scale)
In short: as §1

[16] = system: barnyardgrass (Echinochloa crus-galli); assay: Test B flooded paddy test; settings: Echinochloa crus-galli, 250 g ai/ha, Flood; 0 to 100 scale where 0 is no effect and 100 is complete control; read-out: Barnyardgrass plant response rating
In short: (§2)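 Visual ratings (0 none to 100 complete control) are relative to untreated plants, taken 13–15 d after treatment in a greenhouse. Test material went straight into floodwater standing 3 cm above the soil, kept constant, on plants at the 2-leaf stage.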

[17] = system: sedge, umbrella (small-flower umbrella sedge, Cyperus difformis); assay: Test B flooded paddy test; settings: Cyperus difformis, 250 g ai/ha, Flood; 0 to 100 scale where 0 is no effect and 100 is complete control; read-out: Sedge, Umbrella plant response rating
In short: as §2

rice (Oryra sativa) = assay: Test B flooded paddy test; settings: Oryza sativa, 250 g ai/ha, Flood; 0 to 100 scale where 0 is no effect and 100 is complete control; read-out: Rice plant response rating
In short: as §2

[18] = system: ducksalad (Heteranthera limosa); assay: Test B flooded paddy test; settings: Heteranthera limosa, 250 g ai/ha, Flood; 0 to 100 scale where 0 is no effect and 100 is complete control; read-out: Ducksalad plant response rating
In short: as §2

[19] = 125 g ai/ha, preemergence, visual injury rating, approximately 10 d
[20] = 125 g ai/ha, postemergence, visual injury vs untreated controls after approx. 10 d, 0 = no effect, 100 = complete control
[21] = Postemergence, 31 g ai/ha, 0 is no effect, 100 is complete control

CN1C[C@H](c2ccc(Cl)c(F)c2)[C@@H](C(=O)Nc2ccc(F)c(F)c2F)C1=O [Compound 1266]
70%: pest or weed control at 125 g/ha [8, 20] | pest or weed control at 125 g/ha [12, 20] | pest or weed control at 125 g/ha (Kochia (Kochia scoparia) [13]; [20])
30%: pest or weed control at 31 g/ha (Kochia (Kochia scoparia) [13]; [21])
40%: pest or weed control at 125 g/ha [1, 19] | pest or weed control at 31 g/ha (Kochia (Kochia scoparia) [4]; 31 g ai/ha, Preemergence)
50%: pest or weed control at 31 g/ha [11, 21] | pest or weed control at 125 g/ha [15, 20] | pest or weed control at 250 g/ha (rice (Oryra sativa))
80%: pest or weed control at 125 g/ha [3, 19] | pest or weed control at 125 g/ha (Kochia (Kochia scoparia) [4]; [19]) | pest or weed control at 31 g/ha ([5]; 31 g ai/ha, Preemergence) | pest or weed control at 125 g/ha [10, 20] | pest or weed control at 31 g/ha [10, 21]
0%: pest or weed control at 31 g/ha ([1]; 31 g ai/ha, Preemergence) | plant injury at 31 g/ha [7] | pest or weed control at 31 g/ha [15, 21] | pest or weed control at 250 g/ha [17]
90%: pest or weed control at 31 g/ha ([2]; 31 g ai/ha, Preemergence) | pest or weed control at 125 g/ha [2, 19] | pest or weed control at 125 g/ha [5, 19] | plant injury at 125 g/ha (corn (Zea mays); [20]) | plant injury at 31 g/ha (corn (Zea mays); [21]) | pest or weed control at 125 g/ha [14, 20] | pest or weed control at 31 g/ha [14, 21]
20%: pest or weed control at 31 g/ha ([3]; 31 g ai/ha, Preemergence) | pest or weed control at 31 g/ha ([6]; 31 g ai/ha, Preemergence) | pest or weed control at 31 g/ha [8, 21] | pest or weed control at 31 g/ha [9, 21] | pest or weed control at 31 g/ha [12, 21]
100%: pest or weed control at 250 g/ha [18]
60%: pest or weed control at 125 g/ha [6, 19] | pest or weed control at 125 g/ha [9, 20] | pest or weed control at 125 g/ha [11, 20] | pest or weed control at 250 g/ha [16]

From patent US12077503B2, “Substituted cyclic amides and their use as herbicides” (FMC CORPORATION, priority 2015, dated 2024)
